Assay results reported in US20020114786A1, “Pharmaceutical preparations comprising soybean isoflavone extracts and probiotic microogranisms” (priority 2000, published 2002).
Like-named read-outs stand apart in the source and are kept apart here.

How the values were obtained:
type II (β) receptors = conditions: activity of estradiol set at 100; cited from earlier work
bone = conditions: cited from earlier work
Enterococcus faecium = assay: metabolism of soybean extract isoflavones in microbial culture, HPLC assay; format: in vitro ADME
Method: (§1) At each of these times, a sample is removed from the microbial cultures, diluted with an equal volume of methanol and then filtered. In each case, the methanolic solution is analyzed by high performance liquid chromatography. […] In this way, the contents of the aglycone and glycosylated forms in the metabolized extract are calculated with respect to the glycosylated forms (100%) in the initial extract.

[1] = test system: Lactobacillus acidophilus; assay: as above; format: in vitro ADME
Method: as §1

Lactobacillus brevis = assay: as above; format: in vitro ADME
Method: as §1

Lactobacillus casei = assay: as above; format: in vitro ADME
Method: as §1

Lactobacillus plantarum = assay: as above; format: in vitro ADME
Method: as §1

Lactobacillus rhamnosus = assay: as above; format: in vitro ADME
Method: as §1

Pediococcus acidilactici = assay: as above; format: in vitro ADME
Method: as §1

[2] = test system: Propionibacterium acidipropionici; assay: as above; format: in vitro ADME
Method: as §1

[3] = test system: Streptococcus thermophilus; assay: as above; format: in vitro ADME
Method: as §1

osteoclastic activity = conditions: cited from earlier work
[4] = selecting isoflavone-metabolizing microorganisms; conditions: microbial culture with soybean extract
Method: At each of these times, a sample is removed from the microbial cultures, diluted with an equal volume of methanol and then filtered. In each case, the methanolic solution is analyzed by high performance liquid chromatography. High performance liquid chromatography is used to assay daidzine, genistine, daidzein and genistein in the initial extract and in the media metabolized by the different microorganisms. In this way, the contents of the aglycone and glycosylated forms in the metabolized extract are calculated with respect to the glycosylated forms (100%) in the initial extract.

Oc1ccc([C@H]2COc3cc(O)ccc3C2)cc1 [equol, reference compound]
estrogenic activity (type II (β) receptors): 0.61

estradiol [reference compound]
estrogenic activity (type II (β) receptors): 100

CC(C)Oc1ccc2c(=O)c(-c3ccccc3)coc2c1 [ipriflavone]
bone gain (bone; 500 to 600 mg per day, 40 menopausal women suffering from osteoporosis): bone gain at the level of L1-L5, with a return to normal in 12 months
bone losses (bone; women being treated with LHRH agonists): possible to avoid bone losses

O=c1c(-c2ccc(O)cc2)coc2cc(O)ccc12 [Daidzein, daidzein]
estrogenic activity (type II (β) receptors): 0.013

O=c1c(-c2ccc(O)cc2)coc2cc(O)cc(O)c12 [Genistein, genistein]
content in the metabolized extract with respect to the glycosylated forms (100%) in the initial extract (Enterococcus faecium; Enterococcus faecium culture, cultured 24, 48 and 72 hours, time not given): 80%
content in the metabolized extract with respect to the glycosylated forms (100%) in the initial extract ([1]; Lactobacillus acidophilus culture, time not given): 83%
content in the metabolized extract with respect to the glycosylated forms (100%) in the initial extract (Lactobacillus brevis; Lactobacillus brevis culture, time not given): 81%
content in the metabolized extract with respect to the glycosylated forms (100%) in the initial extract (Lactobacillus casei; Lactobacillus casei culture, time not given): 13%
content in the metabolized extract with respect to the glycosylated forms (100%) in the initial extract (Lactobacillus plantarum; Lactobacillus plantarum culture, time not given): 44%
content in the metabolized extract with respect to the glycosylated forms (100%) in the initial extract (Lactobacillus rhamnosus; Lactobacillus rhamnosus culture, time not given): 85%
content in the metabolized extract with respect to the glycosylated forms (100%) in the initial extract (Pediococcus acidilactici; Pediococcus acidilactici culture, time not given): 30%
content in the metabolized extract with respect to the glycosylated forms (100%) in the initial extract ([2]; Propionibacterium acidipropionici culture, time not given): 72%
content in the metabolized extract with respect to the glycosylated forms (100%) in the initial extract ([3]; Streptococcus thermophilus culture, time not given): 25%
estrogenic activity (type II (β) receptors): 0.084
osteoclastic activity (osteoclastic activity): inhibits osteoclastic activity

Lactobacillus acidophilus
ranking of strains by isoflavone-metabolizing activity [4]: the most active strains

O=c1c(-c2ccc(O)cc2)coc2cc(O[C@@H]3O[C@H](CO)[C@@H](O)[C@H](O)[C@H]3O)ccc12 [Daidzine, daidzine]
content in the metabolized extract with respect to the glycosylated forms (100%) in the initial extract (Enterococcus faecium; 72 h): 0.1%
content in the metabolized extract with respect to the glycosylated forms (100%) in the initial extract [1]: 16%
content in the metabolized extract with respect to the glycosylated forms (100%) in the initial extract (Lactobacillus brevis): 16%
content in the metabolized extract with respect to the glycosylated forms (100%) in the initial extract (Lactobacillus casei): 80%
content in the metabolized extract with respect to the glycosylated forms (100%) in the initial extract (Lactobacillus plantarum): 75%
content in the metabolized extract with respect to the glycosylated forms (100%) in the initial extract (Lactobacillus rhamnosus): 26%
content in the metabolized extract with respect to the glycosylated forms (100%) in the initial extract (Pediococcus acidilactici): 77%
content in the metabolized extract with respect to the glycosylated forms (100%) in the initial extract [2]: 33%
content in the metabolized extract with respect to the glycosylated forms (100%) in the initial extract [3]: 65%

O=c1c(-c2ccc(O)cc2)coc2cc(O[C@@H]3O[C@H](CO)[C@@H](O)[C@H](O)[C@H]3O)cc(O)c12 [Genistine, genistine]
content in the metabolized extract with respect to the glycosylated forms (100%) in the initial extract (Enterococcus faecium; Enterococcus faecium, 72 h): 5.5%
content in the metabolized extract with respect to the glycosylated forms (100%) in the initial extract ([1]; Lactobacillus acidophilus): 6.5%
content in the metabolized extract with respect to the glycosylated forms (100%) in the initial extract (Lactobacillus brevis; Lactobacillus brevis): 2%
content in the metabolized extract with respect to the glycosylated forms (100%) in the initial extract (Lactobacillus casei; Lactobacillus casei): 85%
content in the metabolized extract with respect to the glycosylated forms (100%) in the initial extract (Lactobacillus plantarum; Lactobacillus plantarum): 53%
content in the metabolized extract with respect to the glycosylated forms (100%) in the initial extract (Lactobacillus rhamnosus; Lactobacillus rhamnosus): 5%
content in the metabolized extract with respect to the glycosylated forms (100%) in the initial extract (Pediococcus acidilactici; Pediococcus acidilactici): 63%
content in the metabolized extract with respect to the glycosylated forms (100%) in the initial extract ([2]; Propionibacterium acidipropionici): 12%
content in the metabolized extract with respect to the glycosylated forms (100%) in the initial extract ([3]; Streptococcus thermophilus): 73%
